Assay results taken from publication PMC3049593 (British Journal of Cancer, 2011).

Assays:
[1] = blood pharmacokinetics of [3H]-PG545 in Hep3b tumour-bearing mice; type: in vivo; conditions: for AUC0−t / Cmax / Tmax / t½: blood, 20 mg kg^−1 every 96 h
Description: Analysis of the tumour [^3H]-PG545 concentration vs time data required use of a more physiologically based PK model such that tumour concentrations were estimated from the tumour mass being perfused with blood containing [^3H]-PG545 and where the blood [^3H]-PG545 concentration changed over time. […]
(§1) Pharmacokinetic sampling and analysis
(§2) Samples were collected from three animals at each of four time points – 12 hours, 24 hours, 48 hours and 96 hours post-treatment. At each of these times, whole blood was collected by cardiac puncture and tumours were excised. After collection, 0.2 mL of whole blood was added to a glass scintillation vial to which 1 mL Solvable was added.
(§3) Samples were incubated for one hour at 55-60°C. 0.1 mL of 0.1 M EDTA-di-sodium salt solution and 0.3 mL to 0.5 mL of 30% hydrogen peroxide in 0.1 mL aliquots were added to the sample. Samples were gently agitated between additions to allow reaction foaming to subside. Samples were incubated for 30 minutes at room temperature. Vials were capped tightly and incubated again at 55 – 60 °C fo r 1 hour. Samples were cooled to room temperature and 15 mL of ULTIMA Gold added.
(§4) For tumour samples, 100 mg of tissue was placed in a 20 mL glass scintillation vial and 2 mL of Solvable added. The samples were incubated at 50 - 60 °C for 1 hour with occasional swirling. Samples were cooled to room temperature and for tumours, 0.3 mL of 30% hydrogen peroxide in three aliquots of 0.1 mL were added. The samples were again incubated at 50 - 60 °C for 1 hour with occasional swirling. Tumours samples were […]
(§5) then treated with 15 mL of ULTIMA Gold. To count radioactivity, a Tri-Carb 2800TR liquid scintillation counter from PerkinElmer was used at the Institute of Medical and Veterinary Science (Adelaide, Australia). All parameters were calculated using the QuantaSmart software package. Where DPM values were missing, the following procedure was performed. Efficiency was calculated by generating an efficiency curve using complete samples (where efficiency = Counts Per Minute/Disintegrations Per Minute), and plotted these values against the provided corresponding transformed spectral index of external standard (tSIE) values.
(§6) The pharmacokinetic parameters, Cmax (maximum plasma concentration), Tmax (time of maximum plasma concentration), kelim (terminal elimination rate constant), t½ (half-life), and AUC (area under the concentration versus time curve) were derived from the blood [3H]-PG545 concentration versus time data using model independent methods. In addition, a linear pharmacokinetic model comprising mono-exponential absorption and bi-exponential disposition and elimination was used to simultaneously model the mean blood concentration versus time data for [3H]-PG545 and the following pharmacokinetic parameters, Cmax and Tmax, t½, AUC0-t and AUC0-∞ for [3H]-PG545 were estimated.
(§7) Analysis of the tumour [3H]-PG545 concentration versus time data required use of a more physiologically-based pharmacokinetic model such that tumour concentrations were estimated on the basis of the tumour mass being perfused with blood containing [3H]- […]
(Applied Biosystems) preceded by a Spark Symbiosis Direct On-line Solid Phase Extraction system. Briefly, using a deep-well 96-well plate, 100 µL plasma was mixed with 10 µL standard solution (or water for unknowns) plus 10 µL internal standard solution (PG562 at 100 µg/mL (deionised water for double blank)).This was then mixed for at least 1 min (Ratek Platform Shaker) and incubated at room temperature for 20 mins prior to addition of 25 µL SDS solution (10 mg SDS in 1 mL deionised water) + 75 µL CHAPS solution (50 mg CHAPS in 1 mL deionised water) and 50 µL Proteinase K solution (10 mg Proteinase K in 1 mL 5 mM CaCl2). Following a mixing step this was incubated at 37°C for 2.5 hours prior to addition of 250 µL deionised water and placed into the Spark Symbiosis system.
The Tmax and Cmax on each sampling day were determined for each dose level by visual inspection of the mean data. […]

[2] = tumour and tissue pharmacokinetics of [3H]-PG545 in Hep3b tumour-bearing mice; type: in vivo; conditions: for tumour AUC0-t / tumour Cmax: model independent analysis; for Kt, rate constant of uptake from the tumor / t½b / t½t: one compartment model
Description: Analysis of the tumour [^3H]-PG545 concentration vs time data required use of a more physiologically based PK model such that tumour concentrations were estimated from the tumour mass being perfused with blood containing [^3H]-PG545 and where the blood [^3H]-PG545 concentration changed over time.
Table S1 – Pharmacokinetic analysis of mean tumour [3H]-PG545 concentrations in […]
Model Independent Analysis of Mean Tumor [3H]-PG545 Conc. Versus Time Data Parameter First Dose Second Dose Third Dose Notes: Cmax and Tmax were derived from visual inspection of the data following Cmax (µ g/ml) 37 45 44 s.c. administration of up to three doses of […]
One Compartment Model derived from Mean Tumor [3H]-PG545 Conc. Versus Time Data Parameter First Dose Second Dose Third Dose Notes: Based on assumptions including - 1) All processes are linear with no […]
timeframe of the experiment.
3) Tumor [3H]-PG545 conc is driven by the blood conc of [3H]-PG545 t½t (h) 15.7 15.4 16.3 4) Rate of uptake is proportional to blood […]
5) Rate of return from tumor to blood is proportional to tumor conc.
Kb is the rate constant of uptake into the tumor, in h-1
Kt is the rate constant of uptake from the tumor, in h-1 […]
as §1, §2, §3, §4, §5, §6, §7

[3] = tested on: LL/2 tumours and lung metastases; experiment: syngeneic Lewis Lung Carcinoma (LL/2) tumour growth and spontaneous metastasis model; type: in vivo, mice
Description: (§8) In the orthotopic Hep3b2.1-7 human liver cancer model, treatment of mice (n=10) began 14 days after inoculation of 2.5 × 10^6 cells. […] To initiate tumour xenografts, MDA-MB-231, PC3, Cal27 and HepG2 cells were injected s.c. into nude mice (n=8) at 4, 5, 2 and 2 × 10^7 cells ml^−1, respectively. […] In the B16F0 lung metastasis model, 2 × 10^5 cells were injected via the tail vein of C57Bl6 mice (n=8). […] Surface lung macrometastases were counted for each group (n=9) upon study termination. In the intrasplenic HT-29 xenograft model, 1 × 10^6 cells in 100 μl were injected into the spleen. […] Solid tumours were measured in two dimensions (length and width) and the tumour volume (cm^3) was calculated using the equation: V=length × width^2 × π/6. The anti-tumour activity was expressed as percent tumour growth inhibition (%TGI). Further details are available in Supplementary Methods. […]
(§9) efficacy/PK study) using either a once or twice weekly dosing schedule (see figure legends for dose schedules in each study) for up to three weeks. […]
In the LL/2 mouse model, treatment of mice commenced on the day of inoculation (Day 0). Mice inoculated subcutaneously were treated with either Vehicle Control […]
once weekly or Sorafenib (60mg/kg, once daily, p.o.). The treatments were continued for three weeks. The lungs were excised from all mice at the time of culling for metastasis […]
count determination. […]
(§10) In relevant models, solid tumours were measured in two dimensions (length and width) and the tumour volume (mm3) calculated using the equation V = length × width2 × π/6.The anti-tumour activity was assessed by the comparison of the mean tumour volume of the treated groups to the mean tumour volume of the control group and expressed as the percent Tumour Growth Inhibition (TGI) using the equation:
(§11) %TGI = (1-((VendPG545 - VstartPG545) / (VendControl - VstartControl)))*100 VendPG545 = Ending Tumour Volume of PG545-treated animal
(§12) VstartPG545 = Starting Tumour Volume of PG545-treated animal
(§13) VendControl = Ending Tumour Volume of Control animal
(§14) VstartControl = Starting Tumour Volume of Control animal […]
(§15) After collection, 0.2 mL of […]
(§16) whole blood was added to a glass scintillation vial to which 1 mL Solvable was added.
as §3, §4

Hep3b2.1-7 tumours = experiment: orthotopic Hep3b2.1-7 human liver cancer model; type: in vivo, mice; conditions: 30 mg kg^−1 daily
Description: as §8
In the Hep3b2.1-7 model, the cells resuspended in HBSS:MatrigelTM (1:1, v/v) to a final concentration of 5 x 10^8 cells/mL were inoculated following an incision into the skin directly over the liver to expose the main lobe of the liver. The needle was introduced into the main lobe of the liver, where 2.5 x 106 Hep3b2.1-7 cells (in 5 µL with 50% Matrigel) were discharged. The treatment of mice began 24 days after inoculation of the […]
either a once or twice weekly dosing schedule (see figure legends for dose schedules in each study) for up to three weeks. […]
as §9, §10, §11, §12, §13, §14, §15, §16
as §3, with “Vials were capped tightly and incubated again at 55 – 60 °C fo r 1 hour. Samples were cooled to room temperature and 15 mL of ULTIMA Gold added.” left out

[4] = 20 mg kg^−1 s.c. every 96 h, three doses

SMILES: [3H][C@H]1[C@H](O[C@@H]2O[C@H](COS(=O)(=O)[O-])[C@@H](O[C@H]3O[C@H](COS(=O)(=O)[O-])[C@@H](O[C@H]4O[C@H](COS(=O)(=O)[O-])[C@@H](O[C@H]5O[C@H](COS(=O)(=O)[O-])[C@@H](OS(=O)(=O)[O-])[C@H](OS(=O)(=O)[O-])[C@H]5OS(=O)(=O)[O-])[C@H](OS(=O)(=O)[O-])[C@H]4OS(=O)(=O)[O-])[C@H](OS(=O)(=O)[O-])[C@H]3OS(=O)(=O)[O-])[C@H](OS(=O)(=O)[O-])[C@H]2OS(=O)(=O)[O-])C[C@@H]2CC[C@H]3[C@@H]4CC[C@H]([C@H](C)CCCC(C)C)[C@@]4(C)CC[C@@H]3[C@@]2(C)[C@H]1[3H].[Na+].[Na+].[Na+].[Na+].[Na+].[Na+].[Na+].[Na+].[Na+].[Na+].[Na+].[Na+].[Na+] [[^3H]-PG545]
- mean blood Cmax (range over doses) [1, 4]: 25.9 to 29.0 µg/mL
- mean blood Tmax (range over doses) [1, 4]: 2 to 6 h
- mean elimination half-life (t½) in blood ([1]; 20 mg kg^−1 s.c., up to three bolus doses at 96 h intervals): > 50 h
- AUC0−t ([1]; first dose): 991 µg·h/mL
- Cmax ([1]; first dose): 28 µg/mL
- Tmax ([1]; first dose): 4 h
- t½ ([1]; first dose): 65 h
- AUC0−t ([1]; second dose): 1208 µg·h/mL
- Cmax ([1]; second dose): 26 µg/mL
- Tmax ([1]; second dose): 2 h
- AUC0−t ([1]; third dose): 1556 µg·h/mL
- Cmax ([1]; third dose): 29 µg/mL
- Tmax ([1]; third dose): 6 h
- t½ ([1]; third dose): 117 h
- Cmax in kidney ([2]; following a single dose): 39 µg/g
- Cmax in liver ([2]; following a single dose): 106 µg/g
- tumour AUC0-t ([2]; first dose): 2800 µ g.h/g
- tumour Cmax ([2]; first dose): 37 µ g/ml
- tumour AUC0-t ([2]; second dose): 3662 µ g.h/g
- tumour Cmax ([2]; second dose): 45 µ g/ml
- tumour AUC0-t ([2]; third dose): 3304 µ g.h/g
- tumour Cmax ([2]; third dose): 44 µ g/ml
- Kt, rate constant of uptake from the tumor ([2]; first dose): 0.0441 h⁻¹
- t½b ([2]; first dose): 12.8 h
- t½t ([2]; first dose): 15.7 h
- Kt, rate constant of uptake from the tumor ([2]; second dose): 0.0449 h⁻¹
- t½b ([2]; second dose): 13.3 h
- t½t ([2]; second dose): 15.4 h
- Kt, rate constant of uptake from the tumor ([2]; third dose): 0.0425 h⁻¹
- t½b ([2]; third dose): 16.5 h
- t½t ([2]; third dose): 16.3 h
- t½b, uptake from the bloodstream into the tumour (range over doses) ([2]; one-compartment PK model): 12.8 to 16.5 h
- tumour Cmax (range over doses) ([2]; tumour tissue, 20 mg kg^−1 s.c. every 96 h, three doses): 36.6 to 45.1 µg/g
- tumour Tmax ([2]; tumour tissue, one dose (first dose)): 12 h
- tumour Tmax ([2]; tumour tissue, three doses (third dose)): ≥ 96 h
- tumour Tmax ([2]; tumour tissue, two doses (second dose)): 48 h

SMILES: CNC(=O)c1cc(Oc2ccc(NC(=O)Nc3ccc(Cl)c(C(F)(F)F)c3)cc2)ccn1 [sorafenib, reference compound]
- effect on metastasis ([3]; 60 mg kg^−1 daily): no effect on metastasis
- TGI (primary tumour) ([3]; 60 mg kg^−1 qd): 44%
- TGI (Hep3b2.1-7 tumours): 58%
